Test results as given in PMC6711467 (Drug delivery and translational research, 2018).
Several values for one entry are separate records, joined by “and”; a condition that tells them apart may be missing. Equal values may be shown once. Read-outs that look alike come from different tables or passages of the source. Marks after values point to notes of the source that are not given here. Blank lines part the entries; values can stand above or below the compound they belong to.

How the values were obtained:
[1] = Release of drug from the gel into a liquid sink; type: in vitro ADME; conditions: IQB4012 gel, 1% (w/w) of each drug
[2] = Rectal PK study: IQB4012 gel; type: in vivo, pigtailed macaques; conditions: for median drug concentration (min-max), Rectal fluids / median drug concentration (min-max), Rectal tissues: N = 6; for levels in blood plasma: below the LLOQ, data not shown; for concentration at 2 h / concentration at 4 h / concentration at 24 h: female, pigtailed macaque, other: rectal
[3] = in vivo
[4] = Vaginal PK study: IQB4012 gel; conditions: for concentration at 2 h / concentration at 4 h / concentration at 24 h: female, pigtailed macaque, other: vaginal
[5] = rectal gel application, 1 or 4 ml
[6] = vaginal fluid, distal, 1.5 ml gel
[7] = vaginal fluid, proximal, 0.5 ml
[8] = vaginal fluid, proximal, 1.5 ml gel
[9] = vaginal tissue, distal, 1.5 ml gel
[10] = vaginal tissue, medial, 1.5 ml gel
[11] = vaginal tissue, proximal, 0.5 ml
[12] = vaginal application, below the LLOQ, data not shown

release from the gel into a liquid sink (Franz Cell) [1]: 53.93 μg/cm ^3h
median concentrations in rectal fluids ([2]; 1 ml gel rectally, 2 to 24 h): 10^3–10^5 ng/ml
median drug concentration (min-max), Rectal fluids ([2]; 1 ml gel rectally, 2 h): 93,375 (2480–420,500) ng/ml
median drug concentration (min-max), Rectal fluids ([2]; 1 ml gel rectally, 4 h): 31,000 (545–873,500) ng/ml
median drug concentration (min-max), Rectal tissues ([2]; 1 ml gel rectally, 4 h): 9087 (BLLOQ^2-15,150) ng/g
median drug concentration (min-max), Rectal fluids ([2]; 1 ml gel rectally, 24 h): 2975 (815–22,900) ng/ml
median drug concentration (min-max), Rectal tissues ([2]; 1 ml gel rectally, 24 h): 127 ^* ng/g
median drug concentration (min-max), Rectal fluids ([2]; 4 ml gel rectally, 2 h): 106,500 (54,600–769,000) ng/ml
median drug concentration (min-max), Rectal fluids ([2]; 4 ml gel rectally, 4 h): 53,775 (9570–930,500) ng/ml
median drug concentration (min-max), Rectal tissues ([2]; 4 ml gel rectally, 4 h): 1277 (BLLOQ-51,304) ng/g
median drug concentration (min-max), Rectal fluids ([2]; 4 ml gel rectally, 24 h): 7065 (608–43,750) ng/ml
median drug concentration (min-max), Rectal tissues ([2]; 4 ml gel rectally, 24 h): 566 (BLLOQ-2228) ng/g
levels in blood plasma ([2]; rectal application): < 10 ng/mL
rectal tissue samples with detectable concentrations ([2]; rectal application, both gel volumes (1 and 4 ml)): 10^2–10^3 ng/g
concentrations sampled in rectal tissues [2, 5]: 10^1–10^3 ng/g
levels in rectal tissue biopsies [3]: below LLOQ
plasma concentrations [3]: < 10 ng/mL
Structure (SMILES): Cc1cc(C)cc(C(=O)c2c(C(C)C)c(=O)[nH]c(=O)n2CC2CC2)c1 [IQP-0528]

release from the gel into a liquid sink (Franz Cell) [1]: 82.51 μg/cm ^3h
median drug concentration (min—max), Vaginal fluids, Proximal ([4]; 0.5 ml gel vaginally, 2 h, N = 6): 158,146 (BLLOQ^2-3,025,157) ng/ml
concentration at 2 h ([4]; rectal fluid, 0.5 ml): 80 ng/mL
concentration at 4 h ([4]; rectal fluid, 0.5 ml): 69 ng/mL
concentration at 24 h ([4]; rectal fluid, 0.5 ml): 53 ng/mL
concentration at 2 h ([4]; rectal fluids, 1.5 ml gel): 138 ng/mL
concentration at 4 h ([4]; rectal fluids, 1.5 ml gel): 156 ng/mL
concentration at 24 h ([4]; rectal fluids, 1.5 ml gel): 127 ng/mL
concentration at 2 h ([4]; vaginal fluid, distal, 0.5 ml): 232000 ng/mL
concentration at 4 h ([4]; vaginal fluid, distal, 0.5 ml): 132000 ng/mL
concentration at 24 h ([4]; vaginal fluid, distal, 0.5 ml): 18700 ng/mL
concentration at 2 h ([4]; vaginal fluid, distal, 1.5 ml): 37200 ng/mL
concentration at 4 h [4, 6]: 153000 ng/mL
concentration at 24 h [4, 6]: 57000 ng/mL
concentration at 4 h [4, 7]: 124000 ng/mL
concentration at 24 h [4, 7]: 48900 ng/mL
concentration at 2 h ([4]; vaginal fluid, proximal, 1.5 ml): 30400 ng/mL
concentration at 4 h [4, 8]: 54300 ng/mL
concentration at 24 h [4, 8]: 18000 ng/mL
concentration at 4 h ([4]; vaginal tissue, distal, 0.5 ml): 13400 ng/g
concentration at 24 h ([4]; vaginal tissue, distal, 0.5 ml): 5910 ng/g
concentration at 4 h [4, 9]: 19200 ng/g
concentration at 24 h [4, 9]: 5380 ng/g
concentration at 4 h ([4]; vaginal tissue, medial, 0.5 ml): 8860 ng/g
concentration at 24 h ([4]; vaginal tissue, medial, 0.5 ml): 3550 ng/g
concentration at 4 h [4, 10]: 10200 ng/g
concentration at 24 h [4, 10]: 12200 ng/g
concentration at 4 h [4, 11]: 4490 ng/g
concentration at 24 h [4, 11]: 16900 ng/g
concentration at 4 h ([4]; vaginal tissue, proximal, 1.5 ml gel): 35100 ng/g
median concentrations in rectal fluids ([4]; vaginal application of either volume (0.5 or 1.5 ml), over 24 h): ≤ 200 ng/mL
concentrations in rectal biopsy tissues [4, 12]: < 1 ng/sample
plasma concentrations [4, 12]: < 10 ng/mL
median drug concentration (min-max), Rectal tissues ([2]; 1 ml gel rectally, 24 h): 659 (BLLOQ-3586) ng/g
median drug concentration (min-max), Rectal tissues ([2]; 4 ml gel rectally, 4 h): 393 (BLLOQ-11,464) ng/g
concentration at 2 h ([2]; rectal fluid, 1 ml): 3230 ng/mL
concentration at 4 h ([2]; rectal fluid, 1 ml): 705 ng/mL
concentration at 24 h ([2]; rectal fluid, 1 ml): 132 ng/mL
concentration at 2 h ([2]; rectal fluid, 4 ml): 5060 ng/mL
concentration at 4 h ([2]; rectal fluid, 4 ml): 864 ng/mL
concentration at 24 h ([2]; rectal fluid, 4 ml): 277 ng/mL
concentration at 4 h ([2]; rectal tissue, 1 ml): 811 ng/g
concentration at 24 h ([2]; rectal tissue, 1 ml): 659 ng/g
concentration at 4 h ([2]; rectal tissue, 4 ml): 393 ng/g
concentration at 24 h ([2]; rectal tissue, 4 ml): 1410 ng/g
concentration at 2 h ([2]; pigtailed, rectal fluid, 1 ml): 3230 ng/mL
concentration at 4 h ([2]; pigtailed, rectal fluid, 1 ml): 705 ng/mL
concentration at 24 h ([2]; pigtailed, rectal fluid, 1 ml): 132 ng/mL
concentration at 2 h ([2]; pigtailed, rectal fluid, 4 ml): 5060 ng/mL
concentration at 4 h ([2]; pigtailed, rectal fluid, 4 ml): 864 ng/mL
concentration at 24 h ([2]; pigtailed, rectal fluid, 4 ml): 277 ng/mL
concentration at 4 h ([2]; pigtailed, rectal tissue, 1 ml): 811 ng/g
concentration at 24 h ([2]; pigtailed, rectal tissue, 4 ml): 1410 ng/g
levels in blood plasma ([2]; rectal application): < 10 ng/mL
concentrations sampled in rectal tissues [2, 5]: 10^1–10^3 ng/g
median concentrations in rectal fluids [2, 5]: 10^2–10^3 ng/ml
Structure (SMILES): C[C@H](Cn1cnc2c(N)ncnc21)OCP(=O)(O)O [TFV, tenofovir]

median drug concentration (min-max), Rectal tissues ([2]; 1 ml gel rectally, 4 h): 176 ng/g and 176 (BLLOQ-207) ng/g
median drug concentration (min-max), Rectal tissues ([2]; 1 ml gel rectally, 24 h): 70 ng/g and 70 (BLLOQ-128) ng/g
median drug concentration (min-max), Rectal tissues ([2]; 4 ml gel rectally, 4 h): 47 ng/g and 47 (BLLOQ-480) ng/g
median drug concentration (min-max), Rectal tissues ([2]; 4 ml gel rectally, 24 h): 81 ng/g and 81 (BLLOQ-131) ng/g
Structure (SMILES): C[C@@H](Cn1cnc2c(N)ncnc21)OCP(=O)(O)OP(=O)(O)OP(=O)(O)O [TFV-DP, TFV-diphosphate]
